# According to patent US10640527B2, “Mesitylene-cored amphiphiles and uses thereof” (Industry-University Cooperation Foundation Hanyang …, priority 2016, dated 2020):
# “And” between values parts separate entries of the source, which are not always exact repeats. Equal entries are not always repeated.
# Key:
# [1] = Critical micelle concentration by fluorophore encapsulation using diphenylhexatriene (DPH); assay type: physicochemical; conditions: aqueous solution
# Experimental: A method of measuring a CMC is not particularly limited, and those methods widely known in the related field may be used. For example, a CMC may be measured by a fluorophore encapsulation method using diphenylhexatriene (DPH).
# (§1) Specifically, a CMC was measured by a fluorophorescent encapsulation method using diphenylhexatriene (DPH) and an Rh of a micelle formed by each formulation (1.0 wt %) was measured using a dynamic light scattering (DLS) experiment.
# [2] = Hydrodynamic radius / size distribution of micelles by dynamic light scattering (DLS); assay type: physicochemical; conditions: 1.0 wt % amphiphile
# Experimental: A method of measuring a radius of the micelle is not particularly limited, and those methods widely known in the related field may be used, for example, a dynamic light scattering (DLS) experiment may be used for measurement.
# as §1
# [3] = target: T1, melibiose permease (MelBSt) (Salmonella typhimurium, UniProt P30878); assay: MelBSt extraction from membranes and thermal stability, SDS-PAGE and Western blotting; assay type: biochemical; conditions: 1.5 wt %, 90 minutes; for MelBSt protein extraction efficiency compared with DDM: 45° C.; for MelBSt extraction ability compared with DDM: 55° C.
# T1 construct: made in house; host or cells: DW2 cells (ΔmelB and ΔlacZY), Salmonella typhimurium DW2
# Experimental: An experiment for measuring the structural stability of Salmonella typhimurium melibiose permease (MelBSt) according to MGAs in an aqueous solution was performed. After MelBSt proteins were extracted from a membrane using MGAs or DDM, the amount and structure of extracted proteins were analyzed by SDS-PAGE and western blotting. The concentration of used amphiphiles was 1.5 wt %, and proteins were extracted at four different temperatures of 0, 45, 55 and 65° C. to evaluate both the protein extraction efficiency and stabilizing ability of a compound. A membrane sample which had not been treated with MGAs or DDM was used as a control group.
# Specifically, MelBSt stability solubilized in DDM or MGAs was evaluated according to a method described in 2010 in a research article (P. S. Chae et al., Nat. Methods 2010, 7, 1003-1008.) by the inventors of the present invention. Proteins (MelBSt) were produced using plasmid pK95ΔAHB/WT MelBSt/CH10 encoding the wild-type MelB with a 6-His tag at the C-terminus and Salmonella typhimurium DW2 cells (ΔmelB and ΔlacZY). Cell growth and membrane preparation was performed according to a method described in a research article (Nat. Commun. 2014, 5, 3009) by A. S. Ethayathulla, et al. A protein assay was carried out using a Micro BCA kit (Thermo Scientific, Rockford, Ill.). In order to measure protein solubilization, a membrane sample (final protein concentration was 10 mg/mL) containing MelBSt was incubated with a solubilization buffer (20 mM sodium phosphate, pH 7.5, 200 mM NaCl, 10% glycerol and 20 mM melibiose) and 1.5% (w/v) DDM or MGA (MGA-C10, MGA-C11, MGA-C12, MGA-C13, MGA-C14 or MGA-C15) at four different temperatures of 0, 45, 55 and 65° C. for 90 minutes. After ultracentrifugation at 355,590 g in a Beckman Optima™ MAX Ultracentrifuge using a TLA-100 rotor for 45 min at 4° C., 20 μg of a protein was separated by SDS-16% PAGE and immunoblotted with a Penta-His-HRP antibody (Qiagen, Germantown, Md.). MelBSt was measured by an ImageQuant LAS 4000 Biomolecular Imager (GE Healthcare Life Sciences) using a SuperSignal West Pico chemiluminescent substrate.
# [4] = system: leucine transporter (LeuT); assay: LeuT long-term stability, [3H]-Leu binding by scintillation proximity assay (SPA); assay type: biochemical, Aquifex aeolicus; conditions: after 12 days of incubation at room temperature
# Experimental: An experiment for measuring the structural stability of LeuT proteins according to MGAs (MGA-C11, MGA-C12, MGA-C13, MGA-C14 and MGA-C15) was performed. Each amphiphile was used at a concentration of (a) CMC+0.04 wt % or (b) CMC+0.2 wt %, a ligand-binding activity of LeuT was measured by scintillation proximity assay (SPA) using [^3H]-Leucine. The measurement was performed at regular intervals at room temperature during 12 days of incubation.
# Specifically, a thermophilic bacteria Aquifex aeolicus-derived wild type LeuT was purified using a previously described method (Nature, G. Deckert et al., 1998, 392, 353-358). To sum up, the LeuT was expressed in E. coli C41 (DE3) cultured in a lysogeny broth medium supplemented with 0.1 mg/ml ampicillin. Expression of proteins was induced by adding isopropyl β-D-thiogalactopyranoside to a final concentration of 0.1 mM.
# A cell membrane was separated from a crushed cell (Constant Systems Homogenizers, Kennesaw, Ga.), and solubilized in 1% (w/v) n-dodecyl-β-D-maltopyranoside (DDM; Affymetrix, Santa Clara, Calif.). After solubilization, LeuT was fixed in a Ni^2+-NTA resin (Life Technologies, Denmark), and eluted in 20 mM Tris-HCl (pH 7.5), 199 mM KCl, 1 mM NaCl, 0.05% (w/v) DDM and 300 mM imidazole. Thereafter, purified LeuT (about 1.5 mg/ml) was diluted tenfold with a buffer supplemented with MGA (MGA-C11, MGA-C12, MGA-C13, MGA-C14 or MGA-C15) or DDM to the final concentration of CMC+0.04% (w/v) or CMC+0.2% (w/v) while excluding DDM and imidazole from the above-described buffers. Protein samples were stored at room temperature for 12 days, and protein activity was determined by measuring [^3H]-Leu binding by SPA at a specified time. SPA was carried out using 450 mM NaCl and buffers containing each MGA, and a SPA reaction was performed in the presence of 20 nM [^3H]-Leu and 1.25 mg/ml copper chelate (His-Tag) YSi beads (Perkin Elmer, Denmark). [^3H]-Leu binding was measured using a MicroBeta liquid scintillation counter (Perkin Elmer).
# [5] = target: T2, human β2-adrenergic receptor (β2AR) (Homo sapiens, UniProt P07550); assay: β2AR stability, [3H]-dihydroalprenolol radioligand binding; assay type: biochemical; conditions: after three days of incubation at room temperature, CMC+0.2 wt %
# Experimental: The activity of a receptor (β2AR) purified by DDM or MGAs (MGA-C12, MGA-C13 and MGA-C14) was measured by binding of [^3H]-dihydroalprenolol ([^3H]-DHA).
# Specifically, the following method was used in a radioligand binding experiment. β2AR was purified by 0.1% DDM. The DDM-purified β2AR was diluted with a buffer solution containing each amphiphile (DDM or an MGA) such that the final concentration of the amphiphile was CMC+0.2 wt %. β2AR dissolved in each amphiphile was stored at room temperature for three days, and incubated at room temperature for 30 minutes using 10 nM-radioactive [^3H]-dihydroalprenolol (DHA) to measure ligand binding thereof at regular intervals. The mixture was loaded into a G-50 column, and passing liquid was collected using a binding buffer (20 mM HEPES pH 7.5, 100 mM NaCl supplemented with 0.5 mg/ml BSA) and 15 ml of a scintillation fluid was added thereto. Receptor-coupled [^3H]-DHA was measured by a scintillation counter (Beckman). Non-specific binding of [^3H]-DHA was measured by adding 1 μM of alprenolol (Sigma) in the same reaction. Binding of [^3H]-DHA was measured by column graphs.
# [6] = target: T2, human β2-adrenergic receptor (β2AR); assay: Size exclusion chromatography (SEC) of β2AR solubilized in amphiphile; conditions: for SEC profile of solubilized β2AR: amphiphile-free running buffer
# Experimental: A size exclusion chromatography (SEC) experiment was conducted to determine the β2AR crystallization effect and β2AR stability preservation effect by MGA-C13 or DDM.
# Specifically, β2AR purified by 0.1% DDM was mixed with a DDM or MGA-C13 buffer (20 mM HEPES pH 7.5, 100 mM NaCl, 0.2% of each amphiphile) and incubated for 30 minutes. The sample was applied to a Superdex-200 10/300 GL column (GE Healthcare Life Sciences) at a rate of 0.5 ml/min, fluorescence was recorded at 345 nm, and an […] wavelength was 295 nm. A running buffer contained 20 mM HEPES (pH 7.5) and 100 mM NaCl, and contained each amphiphile (DDM or MGA-C13) or not.
# Water-solubility = assay type: physicochemical; conditions: in water
# [7] = target: T3, uric acid-xanthine/H+ symporter (UapA) (Emericella nidulans, UniProt Q07307, G411V); assay: UapA structural (thermal) stability, CPM assay; assay type: biochemical, Aspergillus nidulans
# T3 construct: GFP; made in house; host or cells: Saccharomyces cerevisiae FGY217
# Experimental: An experiment for measuring the structural stability of uric acid-xanthine/H^+ symporter (UapA) solubilized in MGAs in an aqueous solution was performed. The structural stability of UapA was measured using a CPM assay, and was measured at MGAs and DDM concentrations of (a) CMC+0.04 wt %, or (b) CMC+0.2 wt %.
# Specifically, a UapA protein is a uric acid-xanthine/H^+ symporter in Aspergillus nidulans. Protein stability was measured by fluorescence spectroscopy using N-[4-(7-diethylamino-4-methyl-3-coumarinyl)phenyl]maleimide (CPM) which is a sulfhydryl-specific fluorophore. A free sulfhydryl group of a cysteine residue is in the interior of a protein, but becomes accessible to a solvent upon protein unfolding. CPM becomes fluorescent by a reaction with the free thiol, and thus provides as a protein unfolding sensor. In order to measure thermal stability, first, UapAG411V1-11 was expressed in the Saccharomyces cerevisiae FGY217 strain by fusion with GFP, and separated in a sample buffer (20 mM Tris (pH 7.5), 150 mM NaCl, 0.03% DDM and 1 mM xanthine) according to a method described in a research article (Mol. Membr. Biol. 2013, 30, 32-42) by J. Leung et al. A UapA protein was concentrated to about 10 mg/ml using a 100 kDa molecular weight cut-off filter (Millipore). The concentrated protein was diluted to a ratio of 1:150 with each buffer including DDM or MGA (MGA-C10, MGA-C11, MGA-C12, MGA-C13, MGA-C14 or MGA-C15) at a concentration of CMC+0.04 wt % or CMC+0.2 wt % in a Greiner 96-well plate. A CPM dye (Invitrogen) stored in DMSO (Sigma) was diluted with a dye buffer (20 mM Tris (pH 7.5), 150 mM NaCl, 0.03% DDM and 5 mM EDTA), and 3 μl of the diluted dye was added to each protein sample. The reaction mixture was incubated at 40° C. for 120 minutes. Fluorescence emission was monitored using a microplate spectrofluorometer, with an excitation wavelength at 387 nm and an emission wavelength at 463 nm. Relative maximum fluorescence was used to calculate a percentage of relative folded protein remaining after 120 minutes at 40° C. Relative unfolded proteins were plotted against time using GraphPad Prism.
# Specifically, a UapA stabilization effect was evaluated by the same method as in Experimental Example 2 using MGA-C13, MGA-C14, MNG-3 or DDM at a concentration of (a) CMC+0.04 wt % or (b) CMC+0.2 wt %.
# T2 sequence (P07550 whole entry): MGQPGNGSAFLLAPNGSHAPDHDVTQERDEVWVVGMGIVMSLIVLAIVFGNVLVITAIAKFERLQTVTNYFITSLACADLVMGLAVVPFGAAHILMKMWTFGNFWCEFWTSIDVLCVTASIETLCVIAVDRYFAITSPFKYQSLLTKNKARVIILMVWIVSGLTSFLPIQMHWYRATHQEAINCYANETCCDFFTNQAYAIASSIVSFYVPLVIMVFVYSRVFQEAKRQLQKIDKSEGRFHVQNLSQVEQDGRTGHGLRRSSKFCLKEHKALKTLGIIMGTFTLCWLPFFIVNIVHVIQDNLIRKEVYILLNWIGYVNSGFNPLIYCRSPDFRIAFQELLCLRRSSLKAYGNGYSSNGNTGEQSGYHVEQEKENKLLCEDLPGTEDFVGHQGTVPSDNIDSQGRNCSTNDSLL
# T1 sequence (P30878 whole entry): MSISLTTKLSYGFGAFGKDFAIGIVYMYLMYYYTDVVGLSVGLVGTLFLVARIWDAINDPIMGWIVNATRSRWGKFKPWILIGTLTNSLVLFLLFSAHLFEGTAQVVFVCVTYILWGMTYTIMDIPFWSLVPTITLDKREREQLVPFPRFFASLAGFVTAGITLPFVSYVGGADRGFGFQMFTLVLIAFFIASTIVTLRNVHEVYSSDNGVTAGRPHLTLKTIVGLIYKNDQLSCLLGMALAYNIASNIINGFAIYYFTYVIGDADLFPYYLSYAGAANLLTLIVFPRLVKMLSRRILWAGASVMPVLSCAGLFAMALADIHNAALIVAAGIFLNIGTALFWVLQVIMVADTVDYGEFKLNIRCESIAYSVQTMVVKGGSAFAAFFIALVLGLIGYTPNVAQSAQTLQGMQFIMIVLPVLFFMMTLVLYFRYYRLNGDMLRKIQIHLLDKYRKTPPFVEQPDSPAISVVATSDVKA
# T3 sequence (Q07307 12-574 G411V): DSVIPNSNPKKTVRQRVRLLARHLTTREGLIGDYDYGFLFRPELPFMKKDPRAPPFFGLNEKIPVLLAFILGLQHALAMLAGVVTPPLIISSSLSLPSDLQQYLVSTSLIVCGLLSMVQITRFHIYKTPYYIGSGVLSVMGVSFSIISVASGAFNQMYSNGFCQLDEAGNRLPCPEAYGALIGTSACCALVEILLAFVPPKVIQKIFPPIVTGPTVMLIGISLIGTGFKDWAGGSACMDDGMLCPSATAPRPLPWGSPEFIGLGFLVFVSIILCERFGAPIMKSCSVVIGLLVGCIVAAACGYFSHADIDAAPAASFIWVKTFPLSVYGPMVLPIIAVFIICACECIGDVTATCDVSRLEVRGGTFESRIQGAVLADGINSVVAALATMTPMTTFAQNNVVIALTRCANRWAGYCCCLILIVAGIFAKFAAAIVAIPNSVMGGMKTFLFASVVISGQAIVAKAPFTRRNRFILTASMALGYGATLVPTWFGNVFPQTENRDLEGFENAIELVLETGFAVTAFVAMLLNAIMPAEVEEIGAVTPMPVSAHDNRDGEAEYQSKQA
Structure (SMILES),CMC [1],CMC (wt %) [1],"Rh (nm), hydrodynamic radius of micelle [2]",MelBSt protein extraction efficiency ([3]; 0° C. and 45° C.),MelBSt protein extracted ([3]; 55° C. or more),"LeuT ligand-binding activity retained, % of initial activity [4]",β2AR receptor (ligand binding) activity retained [5],SEC profile of solubilized β2AR [6],water-solubility (Water-solubility),MelBSt protein extraction efficiency compared with DDM [3],MelBSt extraction ability compared with DDM [3],"UapA stabilization effect compared with MNG-3 ([7]; CMC+0.04 wt % or CMC+0.2 wt %, FIG. 25)","effect in maintaining folded UapA, ranking among MGAs ([7]; CMC+0.2 wt %, 40° C., 120 minutes)","size of protein-detergent complexes (PDCs) with β2AR ([6]; SEC, amphiphile-containing buffer, 0.2% amphiphile)"
"CCCCCCCCCCCCO[C@@H]1O[C@H](CO)[C@@H](O[C@H]2O[C@H](CO)[C@@H](O)[C@H](O)[C@H]2O)[C@H](O)[C@H]1O [DDM, n-dodecyl-β-D-maltopyranoside, reference compound]",~170 µM,~0.0087 wt %,3.4 nm and 3.4 ± 0.02 nm,high protein extraction efficiency,almost no protein was observed,~40%,~15%,largely decreased monodispersed peak intensity (˜13 mL) and a new broad aggregate peak (˜10 mL),,,,,,
CCCCCCCCCCCCCCCC(CO[C@@H]1OC(CO)[C@@H](O)C(O)C1O)(CO[C@@H]1OC(CO)[C@@H](O)C(O)C1O)Cc1cc(CC(CCCCCCCCCCCCCCC)(CO[C@@H]2OC(CO)[C@@H](O)C(O)C2O)CO[C@@H]2OC(CO)[C@@H](O)C(O)C2O)cc(CC(CCCCCCCCCCCCCCC)(CO[C@@H]2OC(CO)[C@@H](O)C(O)C2O)CO[C@@H]2OC(CO)[C@@H](O)C(O)C2O)c1 (some centres unmarked) [MGA-C15],~1.5 µM,~0.0003 wt %,3.6 ± 0.02 nm,,,,,,≥ 20%,same level of protein extraction efficiency as DDM,higher MelBSt extraction ability than DDM,,,
CCCCCCCCCCCCCC(CO[C@@H]1OC(CO)[C@@H](O)C(O)C1O)(CO[C@@H]1OC(CO)[C@@H](O)C(O)C1O)Cc1cc(CC(CCCCCCCCCCCCC)(CO[C@@H]2OC(CO)[C@@H](O)C(O)C2O)CO[C@@H]2OC(CO)[C@@H](O)C(O)C2O)cc(CC(CCCCCCCCCCCCC)(CO[C@@H]2OC(CO)[C@@H](O)C(O)C2O)CO[C@@H]2OC(CO)[C@@H](O)C(O)C2O)c1 (some centres unmarked) [MGA-C13],~3 µM,~0.0006 wt %,3.2 ± 0.03 nm,,,,,almost no change,,same level of protein extraction efficiency as DDM,higher MelBSt extraction ability than DDM,far greater UapA stabilization effect than MNG-3,had the highest effect,smaller protein-detergent complexes (PDCs) than DDM
